Data taken from patent publication EP0406111A1, “Substituted arylamines and heteroarylamines, process for their preparation and pharmaceutical composition containing them” (SOCIETE DE CONSEILS DE […] D'APPLICATIONS SCIENTIFIQUES …, priority 1989, dated 1991).
Where two headings read alike, the source gives them in different places.

Columns and labels:
[1] = Toxicity test in mice, 100 mg/kg intraperitoneal; design: species or system souris; conditions: mouse, in vivo, ip, 100 mg/kg i.p., read-out: Toxicité à 100 mg/kg i.p. % mortalité à 48 h
Description: Le tableau 6 annexé illustre les résultats d'essais de toxicité effectués chez la souris sur les amines substituées de l'invention à une dose de 100mg/kg par voie intrapéritonéale.

souris Swiss = test: Locomotor activity of mice in the Boissier-Simon actimeter (Example 38); type: in vivo; conditions: for Activité locomotrice Variation (%) par rapport aux témoins (100%) pour la dose 10 mg/kg,i.p.: 30 min after administration, beams crossed from 20th to 35th minute; for Activité locomotrice, effect compared with BTCP: 10 mg/kg i.p.
Description: Exemple 38 : Mesure de l'activité locomotrice.
L'activité locomotrice de souris Swiss (mâles CD1, 25-30 g, Charles River, St Aubin lès Elbeuf, France) est mesurée dans l'actimètre Boissier-Simon (Apelex, Bagneux, France).
30 minutes après l'administration des composés à tester (10 mg/kg, i.p.), les souris sont introduites dans des cages individuelles en Plexiglass (L = 26 cm, l = 20 cm, h = 10 cm), équipées de deux cellules photoélectriques situées à 1 cm au-dessus du plancher. Chaque cellule est reliée à un compteur électromécanique. "L'activité locomotrice" correspond au nombre de rayons traversés, de la 20ème à la 35ème minute après introduction dans les cages d'actimétrie.

[2] = molecular target: T1, complexe de recapture de la dopamine (Rattus norvegicus, UniProt P23977); test: biochemical; type: binding; conditions: for IC50: read-out: [3H] BTCP IC50
T1 construct: expériences de compétition sur les membranes de striatum préparées comme ci-dessus; from tissue; host or cells: rat striatal membranes
Description: Exemple 35 : Affinité des composés pour les sites de liaison de la (³H)BTCP sur les membranes striatales de cerveaux de rats.
Les striata de cerveaux de rats rapidement disséqués dans la glace sont homogénéisés avec un ultra turax pendant 30 s (position 6) dans 50 volumes d'une solution de sucrose 0,32 M tamponnée par du Tris-HCl 10 mM à pH = 7,4. L'homogénat est centrifugé à 4°C à 1000g pendant 10 mln, puis le surnageant obtenu est centrifugé à 40000 g à 4°C pendant 30 min et les culots obtenus sont repris dans 1 ml de tampon par striatum.
L'affinité des composés pour le complexe de recapture de la dopamine est déterminée par des expériences de compétition sur les membranes de striatum préparées comme ci-dessus. Le ligand radioactif utilisé est la (³H)BTCP (Service des Molécules Marquées du CEA, Saclay France) à 55Ci/mmol.
Après 90 min à 4°C, 3 aliquots de 250 µl sont filtrés sous vide sur des filtres de fibre de verre GF/B (Whatman). La liaison non spécifique est obtenue dans des expériences parallè-les réalisées en présence de 10 µM de BTCP non marquée. Elle est soustraite de la liaison totale pour obtenir la liaison spécifique.

[3] = molecular target: T2, capture de (³H)dopamine par les synaptosomes striataux de rat (Rattus norvegicus, UniProt P23977); test: biochemical
T2 construct: Les culots résultants P2 contenant les synaptosomes bruts sont ensuite utilisés sans purification supplémentaire; from tissue; host or cells: Wistar rat striatum, crude synaptosomes (P2 pellet)
Description: Ce test est pratiqué selon la méthode utilisée par Vignon et Lazdunski en opérant de la façon suivante. Des rats Wistar pesant 200-250g sont tués par dislocation cervicale. Leurs cerveaux sont rapidement prélevés et les striata sont dissé-qués sur la glace. Les striata sont ensuite homogéné-isés (10 allers-retours) avec un homogénéisant Potter dans 50 volumes de tampon Tris HCl 10 mM à pH 7,4 contenant 0,32 M de sucrose. L'homogénat est ensuite centrifugé à 1000g pendant 10min à 4°C, puis le surnageant obtenu est recentrifugé à 10000g pendant 20min à 4°C. Les culots résultants P2 contenant les synaptosomes bruts sont ensuite utilisés sans purification supplémentaire.
On ajoute alors de la dopamine tritiée ((³H)DA, Amersham) à une concentration finale de 5 nM pendant 5 min à 30°C, et on interrompt sa capture par filtration de 150 µl du milieu d'incubation sur des filtres en fibres de verre GF/B (Whatman). La radioactivité retenue par les filtres est mesurée dans un compteur à scintillation liquide (LKB)avec 3 ml d'ACS (Amersham) comme scintillant. La capture non spécifique est mesurée à 4°C dans des incubations parallèles : elle est ensuite sous-traite de la capture totale mesurée à 30°C.
Les composés à tester sont solubilisés au départ dans de l'eau à une concentration de 1mM et les autres concentrations sont obtenues par des dilutions successives de cette solution mère dans l'eau.

[4] = rat striatal membranes, 0,2 nM (3H)BTCP, 90 min at 4°C
[5] = ratio of IC50 at the PCP receptor to IC50 at the dopamine reuptake complex
[6] = rat striatal synaptosomes, 5 nM (3H)DA, 5 min at 30°C, read-out: [3H] DA IC50

T1 sequence (P23977 whole entry, one chain of several): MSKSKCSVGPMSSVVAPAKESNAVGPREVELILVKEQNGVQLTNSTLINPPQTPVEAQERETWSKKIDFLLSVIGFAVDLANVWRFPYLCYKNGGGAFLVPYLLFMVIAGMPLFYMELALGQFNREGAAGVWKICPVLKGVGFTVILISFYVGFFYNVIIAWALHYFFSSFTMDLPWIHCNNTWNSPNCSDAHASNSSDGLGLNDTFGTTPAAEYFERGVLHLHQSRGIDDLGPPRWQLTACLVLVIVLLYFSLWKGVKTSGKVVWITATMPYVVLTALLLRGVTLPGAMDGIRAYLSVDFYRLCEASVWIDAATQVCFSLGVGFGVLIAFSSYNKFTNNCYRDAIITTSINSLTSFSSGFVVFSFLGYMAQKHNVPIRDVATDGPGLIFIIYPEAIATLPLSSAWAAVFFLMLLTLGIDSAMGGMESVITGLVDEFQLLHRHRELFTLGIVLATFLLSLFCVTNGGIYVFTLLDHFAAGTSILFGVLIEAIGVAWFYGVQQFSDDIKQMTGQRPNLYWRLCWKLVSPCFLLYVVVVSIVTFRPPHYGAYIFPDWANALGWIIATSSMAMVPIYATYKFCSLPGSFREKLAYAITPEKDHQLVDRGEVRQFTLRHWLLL
T2 sequence (P23977 whole entry): as the sequence (P23977 whole entry, one chain of several) above

SMILES: CCCN(CCC)C1(c2cc3ccccc3s2)CCCCC1 [composé no 3, (benzo(b)thiophényl-2)-1 (dipropylamino-1)-1 cyclohexane]
- mortality at 48 h [1]: 0%
- Activité locomotrice Variation (%) par rapport aux témoins (100%) pour la dose 10 mg/kg,i.p. (souris Swiss): +53±23%
- Sélectivité pour le complexe de recapture de la dopamine comparé au récepteur de la PCP, result in words [2]: très bons résultats
- IC50 [2, 4]: 7.2 nM
- Sélectivité IC50[^3H]TCP / IC50[^3H]BTCP [2, 5]: 58889
- IC50 [3, 6]: 12.9 nM

SMILES: C[C@H]1CC[C@](c2cc3ccccc3s2)(N2CCCCC2)CC1 [composé n^o 20, (benzo(b)thiophényl-2)-1-t-méthyl-4-r-(pipéridino-1)-1 cyclohexane]
- mortality at 48 h [1]: 0%
- Activité locomotrice Variation (%) par rapport aux témoins (100%) pour la dose 10 mg/kg,i.p. (souris Swiss): +40±22%
- IC50 [2, 4]: 20.7 nM
- Sélectivité IC50[^3H]TCP / IC50[^3H]BTCP [2, 5]: 5410
- IC50 [3, 6]: 21.4 nM

SMILES: CC1CCCN(C2(c3cc4ccccc4s3)CCCCC2)C1 (stereo not drawn) [composé n^o 2, (benzo(b)thiophényl-2)-1 ((méthyl-3 pipéridino)-1)-1 cyclohexane]
- mortality at 48 h [1]: 10%
- Activité locomotrice, effect compared with BTCP (souris Swiss): effet supérieur à celui du BTCP
- Activité locomotrice Variation (%) par rapport aux témoins (100%) pour la dose 10 mg/kg,i.p. (souris Swiss): +160±25%
- IC50 [2, 4]: 13.3 nM
- Sélectivité IC50[^3H]TCP / IC50[^3H]BTCP [2, 5]: 3910
- IC50 [3, 6]: 9.3 nM

SMILES: CC1CC(C)CN(C2(c3cc4ccccc4s3)CCCCC2)C1 (stereo not drawn) [composé n^o 6, (benzo(b)thiophényl-2)-1 ((diméthyl-3,5 pipéridino)-1)-1 cyclohexane]
- mortality at 48 h [1]: 10%
- Activité locomotrice Variation (%) par rapport aux témoins (100%) pour la dose 10 mg/kg,i.p. (souris Swiss): +84±12%
- IC50 [2, 4]: 12.7 nM
- Sélectivité IC50[^3H]TCP / IC50[^3H]BTCP [2, 5]: >>7874
- IC50 [3, 6]: 14.9 nM

SMILES: BrCC1CCCN(C2(c3cc4ccccc4s3)CCCCC2)C1 (stereo not drawn) [composé n^o 10, (benzo(b)thiophényl-2)-1 ((bromométhyl-3 pipéridino)-1)-1 cyclohexane]
- mortality at 48 h [1]: 0%
- Activité locomotrice Variation (%) par rapport aux témoins (100%) pour la dose 10 mg/kg,i.p. (souris Swiss): +30±19%
- IC50 [2, 4]: 34.5 nM
- Sélectivité IC50[^3H]TCP / IC50[^3H]BTCP [2, 5]: >>2898
- IC50 [3, 6]: 57.1 nM

SMILES: C[C@H]1CC[C@@](c2cc3ccccc3s2)(N2CCCCC2)CC1 [composé n^o 21, (benzo(b)thiophényl-2)-1 c-méthyl-4-r-(pipéridino-1)-1 cyclohexane]
- mortality at 48 h [1]: 0%
- Activité locomotrice, effect compared with BTCP (souris Swiss): effet supérieur à celui du BTCP
- Activité locomotrice Variation (%) par rapport aux témoins (100%) pour la dose 10 mg/kg,i.p. (souris Swiss): +175±27%
- Sélectivité pour le complexe de recapture de la dopamine comparé au récepteur de la PCP, result in words [2]: très bons résultats
- IC50 [2, 4]: 6.9 nM
- Sélectivité IC50[^3H]TCP / IC50[^3H]BTCP [2, 5]: >>14493
- IC50 [3, 6]: 9.4 nM

SMILES: OC1CCN(C2(c3cc4ccccc4s3)CCCCC2)CC1 [composé 26, (benzo(b)thiophényl-2)-1( (ol-4-pipéridino)-1)-1 cyclohexane]
- Activité locomotrice Variation (%) par rapport aux témoins (100%) pour la dose 10 mg/kg,i.p. (souris Swiss): +252±45%
- IC50 [2, 4]: 15.9 nM
- Sélectivité IC50[^3H]TCP / IC50[^3H]BTCP [2, 5]: 2006

SMILES: c1ccc2oc(C3(N4CCCCC4)CCCCC3)cc2c1 [composé n^o 4, (benzo(b)furannyl-2)-1 (pipéridino-1)-1 cyclohexane]
- mortality at 48 h [1]: 10%
- Activité locomotrice, effect compared with BTCP (souris Swiss): effet supérieur à celui du BTCP
- Activité locomotrice Variation (%) par rapport aux témoins (100%) pour la dose 10 mg/kg,i.p. (souris Swiss): +169±19%
- IC50 [2, 4]: 19.1 nM
- Sélectivité IC50[^3H]TCP / IC50[^3H]BTCP [2, 5]: 2094
- IC50 [3, 6]: 33.8 nM

SMILES: c1ccc2sc(C3(N4CCCCC4)CCCCC3)cc2c1 [BTCP, (benzo(b)thiophényl-2)-1 (pipéridino -1) cyclohexane, reference compound]
- mortality at 48 h [1]: 0%
- Activité locomotrice Variation (%) par rapport aux témoins (100%) pour la dose 10 mg/kg,i.p. (souris Swiss): +122±12%
- Sélectivité IC50[^3H]TCP / IC50[^3H]BTCP ([2]; rat): 2380
- IC50 [2]: 8.4 nM
- IC50 [3]: 13.9 nM
